Article PMC10354055, “An optimized Nurr1 agonist provides disease-modifying effects in Parkinson’s disease models” (Nature Communications, 2023)
Where “and” joins values, the source holds several entries; their conditions need not be identical. Equal entries are not always repeated.

Tests used:
Format in all cases: cell-based
Nor1 = biological target: T1, Nor1 (Homo sapiens, UniProt Q92570); test: Luciferase reporter assay, Nor1 LBD, SK-N-BE(2)C cells; conditions: Fig. 1f; CQ 100 µM, 4A7C-301 20 µM, PGA1 10 µM
T1 construct: using LBD of NR4A subfamily members in SK-N-BE(2)C cells; expressed in transfected cells; host or cells: SK-N-BE(2)C
T1 sequence (Q92570 394-623 limits assumed): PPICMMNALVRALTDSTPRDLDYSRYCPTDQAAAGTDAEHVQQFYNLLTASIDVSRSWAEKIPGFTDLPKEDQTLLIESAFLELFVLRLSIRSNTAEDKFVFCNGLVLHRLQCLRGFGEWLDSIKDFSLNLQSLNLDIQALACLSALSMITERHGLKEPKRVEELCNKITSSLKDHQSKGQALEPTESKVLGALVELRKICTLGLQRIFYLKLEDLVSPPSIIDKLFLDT

Nurr1-LBD point mutants [1] = biological target: T2, Nurr1-LBD point mutants (Mus musculus, UniProt Q06219); test: Luciferase assay with point-mutants of Nurr1-LBD, SK-N-BE(2)C cells;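 further: Firefly luciferase normalized to beta-galactosidase activity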; conditions: Supplementary Fig. 2, WT
T2 construct: expressed in transfected cells; host or cells: SK-N-BE(2)C
T2 sequence (Q06219 whole entry, change not shown, the tested form may be a part): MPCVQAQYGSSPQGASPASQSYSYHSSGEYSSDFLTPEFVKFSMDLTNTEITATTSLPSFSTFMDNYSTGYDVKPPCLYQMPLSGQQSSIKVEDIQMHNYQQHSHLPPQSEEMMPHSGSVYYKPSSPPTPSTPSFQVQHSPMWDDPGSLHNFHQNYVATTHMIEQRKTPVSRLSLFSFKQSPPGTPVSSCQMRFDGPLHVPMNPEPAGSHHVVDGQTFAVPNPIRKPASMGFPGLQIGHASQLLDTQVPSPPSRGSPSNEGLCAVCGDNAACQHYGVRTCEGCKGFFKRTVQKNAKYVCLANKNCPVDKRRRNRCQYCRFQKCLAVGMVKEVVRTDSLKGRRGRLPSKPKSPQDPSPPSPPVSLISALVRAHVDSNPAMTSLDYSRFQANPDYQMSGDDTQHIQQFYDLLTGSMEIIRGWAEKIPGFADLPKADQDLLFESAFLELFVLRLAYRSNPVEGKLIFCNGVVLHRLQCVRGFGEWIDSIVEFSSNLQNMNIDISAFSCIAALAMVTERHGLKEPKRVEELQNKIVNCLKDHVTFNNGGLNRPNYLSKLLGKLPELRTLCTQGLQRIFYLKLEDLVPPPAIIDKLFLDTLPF
Description: (§1) Nurr1 transactivity was normalized to β-galactosidase activity.
(§2) Nurr1 mutants were generated using the QuikChange ǁ XL site-directed mutagenesis kit (Agilent Technologies) according to the manufacturer’s instruction. Mutagenesis reactions were carried out on the plasmid of mouse Nurr1 cloned into pcDNA3.1 backbone, and then verified by sequencing.

Nurr1-LBD point mutants [2] = biological target: T3, Nurr1-LBD point mutants (Mus musculus, UniProt Q06219, D594A); test: as above; conditions: Supplementary Fig. 2, D594A
T3 construct: expressed in transfected cells; host or cells: SK-N-BE(2)C
T3 sequence (Q06219 whole entry D594A, the tested form may be a part): as the sequence (Q06219 whole entry, change not shown, the tested form may be a part) above, with D594A counted along it
Description: as §1, §2

Nurr1-LBD point mutants [3] = biological target: T4, Nurr1-LBD point mutants (Mus musculus, UniProt Q06219, K590A); test: as above; conditions: Supplementary Fig. 2, K590A
T4 construct: expressed in transfected cells; host or cells: SK-N-BE(2)C
T4 sequence (Q06219 whole entry K590A, the tested form may be a part): as the sequence (Q06219 whole entry, change not shown, the tested form may be a part) above, with K590A counted along it
Description: as §1, §2

Nurr1-LBD point mutants [4] = biological target: T5, Nurr1-LBD point mutants (Mus musculus, UniProt Q06219, L593A); test: as above; conditions: Supplementary Fig. 2, L593A
T5 construct: expressed in transfected cells; host or cells: SK-N-BE(2)C
T5 sequence (Q06219 whole entry L593A, the tested form may be a part): as the sequence (Q06219 whole entry, change not shown, the tested form may be a part) above, with L593A counted along it
Description: as §1, §2

Nurr1-LBD point mutants [5] = biological target: T6, Nurr1-LBD point mutants (Mus musculus, UniProt Q06219, S441A); test: as above; conditions: Supplementary Fig. 2, S441A
T6 construct: expressed in transfected cells; host or cells: SK-N-BE(2)C
T6 sequence (Q06219 whole entry S441A, the tested form may be a part): as the sequence (Q06219 whole entry, change not shown, the tested form may be a part) above, with S441A counted along it
Description: as §1, §2

CCCCC[C@H](O)/C=C/[C@H]1C=CC(=O)[C@@H]1CCCCCCC(=O)O [PGA1, Prostaglandin A1]
Luciferase activity (fold), Nor1 (Nor1): 8.223 fold and 7.904 fold and 8.304 fold | Luciferase activity (fold) (Nurr1-LBD point mutants [1]): 12.6112 fold and 12.2963 fold and 12.2061 fold | Luciferase activity (fold) (Nurr1-LBD point mutants [2]): 12.291 fold and 11.1318 fold and 11.3674 fold | Luciferase activity (fold) (Nurr1-LBD point mutants [3]): 12.5774 fold and 11.0052 fold and 12.4192 fold | Luciferase activity (fold) (Nurr1-LBD point mutants [4]): 11.666 fold and 12.1821 fold and 11.0369 fold | Luciferase activity (fold) (Nurr1-LBD point mutants [5]): 12.6359 fold and 12.6237 fold and 10.9807 fold
